# Measured values taken from publication PMC6934184, “Selective DNA-PKcs inhibition extends the therapeutic index of localized radiotherapy and chemotherapy” (The Journal of Clinical Investigation, 2019).
# Target: T1, FER (Homo sapiens, UniProt P16591)
# T1 construct: purchased Thermo Fisher Scientific (Life Technologies) SelectScreen
# Test: SelectScreen Z'LYTE
# Assay type: biochemical
# Outline: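 NU5455 was profiled across the SelectScreen Broad panel of kinase activity and binding assays. Z'LYTE reactions such as CSF1R ran at apparent Km ATP, while the Adapta CAMK1 assay used ATP listed as 10. Values are given as percent.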
# T1 sequence (P16591 whole entry): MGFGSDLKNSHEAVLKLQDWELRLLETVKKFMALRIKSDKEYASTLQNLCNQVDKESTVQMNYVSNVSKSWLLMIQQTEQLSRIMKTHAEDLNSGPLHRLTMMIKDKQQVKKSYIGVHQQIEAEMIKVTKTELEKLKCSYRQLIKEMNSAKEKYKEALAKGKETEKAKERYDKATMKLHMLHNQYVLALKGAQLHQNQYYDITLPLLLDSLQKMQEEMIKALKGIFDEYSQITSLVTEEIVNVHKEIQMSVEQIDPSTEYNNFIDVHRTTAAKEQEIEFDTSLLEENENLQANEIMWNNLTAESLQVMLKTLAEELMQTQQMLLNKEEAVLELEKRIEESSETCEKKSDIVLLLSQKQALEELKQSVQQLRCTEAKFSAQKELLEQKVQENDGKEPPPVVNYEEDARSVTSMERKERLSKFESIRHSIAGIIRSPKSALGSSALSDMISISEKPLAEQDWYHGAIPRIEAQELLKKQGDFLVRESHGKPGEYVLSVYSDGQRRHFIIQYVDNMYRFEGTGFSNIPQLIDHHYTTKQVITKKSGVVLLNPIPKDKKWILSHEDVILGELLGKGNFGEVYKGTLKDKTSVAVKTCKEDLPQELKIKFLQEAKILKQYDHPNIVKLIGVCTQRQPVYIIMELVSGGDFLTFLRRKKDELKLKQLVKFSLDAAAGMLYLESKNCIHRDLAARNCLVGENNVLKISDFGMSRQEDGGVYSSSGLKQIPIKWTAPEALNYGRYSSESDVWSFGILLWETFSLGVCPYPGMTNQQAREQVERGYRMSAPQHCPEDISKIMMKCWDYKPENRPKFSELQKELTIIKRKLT
smiles,measurement,value
CN(C(=O)CN1CCOCC1)c1ccc2sc3c(-c4cccc5c(=O)cc(N6CC7CCC(C6)O7)oc45)cccc3c2c1 [NU5455],inhibition at 1 µM,7.1%
